Here are results for 13 compounds from US11976083B2, “Inhibitors of peptidylarginine deiminases” (Gilead Sciences, Inc., priority 2020, dated 2024).

In this assay the target is T1, human PAD4 (Homo sapiens, UniProt Q9UM07).
T1 construct: human PAD4 (NM_012387), A2-P663, was PCR amplified; His-SUMO (N, cleaved yes); made in house; host or cells: E. coli BL21(DE3)
The experiment in a line: In vitro PAD4 BAEE biochemical assay. Conditions: BAEE substrate 3 mM, 5 nM PAD4, 2 mM calcium chloride; geometric mean of multiple experiments. The essentials:
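Ammonia produced by BAEE deimination (3 mM substrate, 2 h, 25 °C) was read as fluorescent isoindole after o-phthalaldehyde/DTT derivatization, ex 405 nm/em 535 nm. Human PAD4 at 5 nM final, 2 mM calcium, pH 7.6 MOPS; compound preincubated 30 min. IC50s, normalized to BB-Cl-Amidine and DMSO controls, were geometric-mean averaged.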

T1 sequence (Q9UM07 2-663): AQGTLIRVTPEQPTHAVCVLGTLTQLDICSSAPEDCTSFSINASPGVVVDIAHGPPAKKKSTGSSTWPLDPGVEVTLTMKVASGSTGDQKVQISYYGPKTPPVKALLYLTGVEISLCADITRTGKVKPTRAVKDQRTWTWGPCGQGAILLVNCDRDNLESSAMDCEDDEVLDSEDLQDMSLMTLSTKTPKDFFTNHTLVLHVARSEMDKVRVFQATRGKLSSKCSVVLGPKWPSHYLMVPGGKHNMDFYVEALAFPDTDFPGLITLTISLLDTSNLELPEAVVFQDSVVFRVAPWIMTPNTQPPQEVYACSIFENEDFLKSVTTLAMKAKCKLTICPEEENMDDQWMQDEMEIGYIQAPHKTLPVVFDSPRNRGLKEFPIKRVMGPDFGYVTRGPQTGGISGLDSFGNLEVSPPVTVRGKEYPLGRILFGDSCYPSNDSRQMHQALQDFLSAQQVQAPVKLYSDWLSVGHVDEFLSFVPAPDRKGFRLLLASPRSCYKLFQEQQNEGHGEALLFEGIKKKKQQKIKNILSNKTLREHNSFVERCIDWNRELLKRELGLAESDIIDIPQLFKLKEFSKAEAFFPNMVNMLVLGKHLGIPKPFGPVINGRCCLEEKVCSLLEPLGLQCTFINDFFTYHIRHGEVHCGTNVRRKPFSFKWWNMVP

Regarding `COc1cc(C(=O)N[C@H]2CNCC[C@@H]2O)cc2nc(-c3cc4ccc5nc4n3CCCCCCC(C)(C)C(=O)N[C@@H]5C)n(C)c12` [Example 244, ~{N}-[(3~{S},4~{S})-4-hydroxy-3-piperidyl]-7-methoxy-1-methyl-2-[(11~{R})-8,8,11-trimethyl-9-oxo-1,10,19-triazatricyclo[10.5.2.0^{15,18}]nonadeca-12(19),13,15(18),16-tetraen-17-yl]benzimidazole-5-carboxamide], the IC50 was 2580 nM. Regarding `COc1cc(C(=O)N2[C@H]3CC[C@@H]2[C@H](N)C3)cc2nc(-c3cc4ccc5nc4n3CCCCCC[C@@](C)(C(F)(F)F)C(=O)N[C@@H]5C)n(C)c12` [Example 12, (8~{R},11~{R})-17-[5-[(1~{R},2~{R},4~{S})-2-amino-7-azabicyclo[2.2.1]heptane-7-carbonyl]-7-methoxy-1-methyl-benzimidazol-2-yl]-8,11-dimethyl-8-(trifluoromethyl)-1,10,19-triazatricyclo[10.5.2.0^{15,18}]nonadeca-12(19),13,15(18),16-tetraen-9-one], the IC50 came out at 120 nM. As for `COc1cc(C(=O)N[C@H]2CNCC[C@@H]2F)cc2nc(-c3cc4ccc5nc4n3CCCCC[C@H]3CC[C@@H]3C(=O)N[C@@H]5C)n(C)c12` (single isomer, unassigned) [Example 486, ˜{N}-[(3˜{S},4˜{S})-4-fluoro-3-piperidyl]-7-methoxy-1-methyl-2-[(2˜{R},5˜{S},8˜{S})-2-methyl-4-oxo-3,14,20-triazatetracyclo[12.5.2.0^{5,8}.0^{17,21}]henicosa-1(20),15,17(21),18-tetraen-15-yl]benzimidazole-5-carboxamide], the IC50 was found to be 110 nM. The value for `COc1cc(C(=O)N[C@H]2CNCC[C@@H]2F)cc2nc(-c3cc4ccc5nc4n3CCCCCc3cnccc3C(=O)N[C@@H]5C)n(C)c12` [Example 344, ~{N}-[(3~{S},4~{S})-4-fluoro-3-piperidyl]-7-methoxy-1-methyl-2-[(2~{R})-2-methyl-4-oxo-3,8,16,22-tetrazatetracyclo[14.5.2.0^{5,10}.0^{19,23}]tricosa-1(22),5,7,9,17,19(23),20-heptaen-17-yl]benzimidazole-5-carboxamide] was 51 nM; that for `COCCn1c(-c2cc3ccc4nc3n2CCCCC[C@@H]2C[C@H]2C(=O)N[C@@H]4C)nc2cc(C(=O)N[C@H]3CNCC[C@@H]3F)cc(OC)c21` [Example 431, ~{N}-[(3~{S},4~{S})-4-fluoro-3-piperidyl]-7-methoxy-1-(2-methoxyethyl)-2-[(2~{R},5~{R},7~{R})-2-methyl-4-oxo-3,13,19-triazatetracyclo[11.5.2.0^{5,7}.0^{16,20}]icosa-1(19),14,16(20),17-tetraen-14-yl]benzimidazole-5-carboxamide] was 41 nM.

For `COc1cc(C(=O)N2[C@H]3CC[C@@H]2[C@H](N)C3)cc2nc(-c3cc4ccc5nc4n3CCCCCCCCCC(=O)N[C@@H]5C)c(C)n12` [Example 287, (13~{R})-19-[7-[(1~{R},2~{R},4~{S})-2-amino-7-azabicyclo[2.2.1]heptane-7-carbonyl]-5-methoxy-3-methyl-imidazo[1,2-a]pyridin-2-yl]-13-methyl-1,12,21-triazatricyclo[12.5.2.0^{17,20}]henicosa-14(21),15,17(20),18-tetraen-11-one], the half-maximal inhibitory concentration (IC50) was 55 nM. The figure for `COc1cc(C(=O)N2C[C@H](N)C[C@H](C(F)F)C2)cc2nc(-c3cc4ccc5nc4n3CCCCC[C@@H]3C[C@H]3C(=O)N[C@@H]5C)n(C)c12` [Example 631, (2~{R},5~{R},7~{R})-14-[5-[(3~{R},5~{S})-3-amino-5-(difluoromethyl)piperidine-1-carbonyl]-7-methoxy-1-methyl-benzimidazol-2-yl]-2-methyl-3,13,19-triazatetracyclo[11.5.2.0^ {5,7}.0^{16,20}]icosa-1(19),14,16(20),17-tetraen-4-one] is 211 nM; for `COc1cc(C(=O)N[C@H]2CNC[C@@H]2F)cc2nc(-c3cc4ccc5nc4n3CCCCCCC(C)(C)C(=O)N[C@@H]5C)n(C)c12` [Example 197, ~{N}-[(3~{S},4~{S})-4-fluoropyrrolidin-3-yl]-7-methoxy-1-methyl-2-[(11~{R})-8,8,11-trimethyl-9-oxo-1,10,19-triazatricyclo[10.5.2.0^{15,18}]nonadeca-12(19),13,15(18),16-tetraen-17-yl]benzimidazole-5-carboxamide] it is 6490 nM.

In the case of `C[C@H]1NC(=O)[C@@H]2C[C@H]2CCCCCn2c(-c3nc4cc(C(=O)N[C@H]5CNCC[C@@H]5F)c(F)cc4n3[C@H]3C[C@H]3F)cc3ccc1nc32` [Example 826, 6-fluoro-1-[(1~{S},2~{R})-2-fluorocyclopropyl]-~{N}-[(3~{S),4~{S})-4-fluoro-3-piperidyl]-2-[(2~{R},5~{R},7~ {R})-2-methyl-4-oxo-3,13,19-triazatetracyclo [11.5.2.0^{5,7}.0^{16,20}]icosa-1(19),14,16(20),17-tetraen-14-yl]benzimidazole-5-carboxamide], the 50% inhibitory concentration (IC50) stood at 31 nM. As to `C[C@H]1NC(=O)[C@@H]2C[C@H]2CCCC(F)(F)Cn2c(-c3nc4cc(C(=O)N5C[C@H]6CC[C@@H]5[C@@H]6N)cc(F)c4n3C3CC3)cc3ccc1nc32` [Example 646, (2~{R},5~{R},7~{R})-14-[5-[(1~{R},4~{R},7~{R})-7-amino-2-azabicyclo [2.2.1]heptane-2-carbonyl]-1-cyclopropyl-7-fluoro-benzimidazol-2-yl]-11,11-difluoro-2-methyl-3,13,19-triazatetracyclo [11.5.2.0^{5,7}.0^{16,20}] icosa-1(19),14,16(20), 17-tetraen-4-one], the IC50 came out at 22 nM. The value for `COc1cc(C(=O)N2CC[C@@H](OC(F)F)[C@@H](N)C2)cc2nc(-c3cc4ccc5nc4n3CCCCCc3cnccc3C(=O)N[C@@H]5C)n(C)c12` [Example 492, (2~{R})-17-[5-[(3~{S}, 4~{R})-3-amino-4-(difluoromethoxy)piperidine-1-carbonyl]-7-methoxy-1-methyl-benzimidazol-2-yl]-2-methyl-3,8,16,22-tetrazatetracyclo [14.5.2.0^{5,10}.0^{19,23}] tricosa-1(22),5(10), 6,8,17,19(23),20-heptaen-4-one] was 156 nM; that for `COc1cc(C(=O)N2[C@H]3CC[C@@H]2[C@H](N)C3)cc2nc(-c3cc4ccc5nc4n3CCCCCC[C@@H](C)C(=O)N[C@@H]5C)n(C)c12` [Example 136, (8~{R},11~{R})-17-[5-[(1~{R},2~{R},4~{S})-2-amino-7-azabicyclo[2.2.1]heptane-7-carbonyl]-7-methoxy-1-methyl-benzimidazol-2-yl]-8,11-dimethyl-1,10,19-triazatricyclo[10.5.2.0^{15,18}]nonadeca-12(19),13,15(18),16-tetraen-9-one] was 40 nM. Regarding `COc1cc(C(=O)N2CCC[C@@H](N)C2)cc2nc(-c3cc4ccc5nc4n3CCCCCCC(=O)N[C@@H]5C)c(C)n12` [Example 300, (10~{R})-16-[7-[(3~{R})-3-aminopiperidine-1-carbonyl]-5-methoxy-3-methyl-imidazo[1,2-a]pyridin-2-yl]-10-methyl-1,9,18-triazatricyclo[9.5.2.0^{14,17}]octadeca-11(18),12,14(17),15-tetraen-8-one], the 50% inhibitory concentration (IC50) was found to be 50 nM.
